How the values were obtained:
A375 = experiment: CellTiter-Glo proliferation and viability assay; format: cell-based; details: Homo sapiens, A-375, parental A375 B-Raf V600E cells, comparison with A375res
A375res cells = experiment: CellTiter-Glo proliferation and viability assay in vemurafenib-resistant cells; format: cell-based, human

shift of IC50, A375res versus A375 (A375res cells): ~30 fold | IC50 (A375res cells; Homo sapiens, A375res cells): > 7000 nM
SMILES: CCCS(=O)(=O)Nc1ccc(F)c(C(=O)c2c[nH]c3ncc(-c4ccc(Cl)cc4)cc23)c1F [PLX4032, vemurafenib]
IC50 (A375): 252 nM

Source: patent publication US8741911B2, “Raf inhibitor compounds” (Eli Lilly and Company, priority 2012, dated 2014)
